In brackets after ≈: the same amount, converted by molar mass.
Legend:
[1] = system: S. aureus clinical strain 005S; design: method as in earlier work; conditions: clinical isolate 005S, skin; cited from earlier work
[2] = system: S. aureus clinical strain 043SC (MRSA); design: method as in earlier work; conditions: clinical isolate 043SC (MRSA), skin of patient with furuncle folliculitis; cited from earlier work
[3] = system: S. aureus clinical strain 051N (MRSA); design: method as in earlier work; conditions: clinical isolate 051N (MRSA), nasal swab; cited from earlier work
[4] = system: S. aureus clinical strain 004N (MRSA); design: method as in earlier work; conditions: clinical isolate 004N (MRSA), nasal swab; cited from earlier work
[5] = system: S. aureus clinical strain 015N (MRSA); design: method as in earlier work; conditions: clinical isolate 015N (MRSA), nasal swab; cited from earlier work
[6] = system: S. aureus clinical strain 009S; design: method as in earlier work; conditions: clinical isolate 009S, skin; cited from earlier work
[7] = system: S. aureus clinical strain 060S; design: method as in earlier work; conditions: clinical isolate 060S, skin; cited from earlier work
[8] = system: S. aureus clinical strain 030N; design: method as in earlier work; conditions: clinical isolate 030N, nasal swab; cited from earlier work
[9] = system: S. aureus clinical strain 031S; design: method as in earlier work; conditions: clinical isolate 031S, skin; cited from earlier work
S. aureus ATCC 25923 = test: microbe, parasite or virus in culture
Source text: (§1) Clinical S. aureus strains were collected from patients with atopic dermatitis during their visits to the Outpatient Clinic and hospitalization in the Department of Dermatology, Venereology and Allergology at Medical University of Gdańsk (following the approval from the ethics committee, Approval Number NKBBN/242–477/2014). Reference strains of S. aureus ATCC 25923, S. aureus ATCC 33591, S. aureus ATCC 9144, and S. aureus ATCC 12598 were obtained from the American Type Culture Collection. All the strains were stored at − 80 °C in Roti®-Store cryo vials (Carl Roth GmbH, Karlsruhe, Germany) and before the tests were transferred into fresh Mueller–Hinton Medium (BioMaxima, Lublin, Poland) and incubated for 24 h at 37 °C. Subsequently, each bacterial inoculum was seeded on Mueller–Hinton agar plates (BioMaxima) and incubated again for 24 h. The cultures prepared in this way were used in further antimicrobial assays. Minimum inhibitory concentrations (MICs) were determined according to the Clinical and Laboratory Standards Institute recommendations. […] The experiments were conducted on 96-well microtiter plates, with a final volume of 100 μL. Additionally, in the case of daptomycin, the medium was supplemented with Ca^2+ (50 mg/L). Cell densities were adjusted spectrophotometrically (Multiskan™ GO Microplate Spectrophotometer, Thermo Scientific) at 600 nm. The MICs were taken as the lowest drug concentration at which a visible growth of the microorganisms was inhibited. Minimum biofilm eliminating concentrations (MBECs) were determined on 96-well flat-bottomed microtiter polystyrene plates with resazurin (7-hydroxy-3H-phenoxazin-3-one 10-oxide sodium salt) as a cell viability reagent. To do this, the plates were filled with 100 μL of the initial inoculums of bacteria (0.5 × 10^7 CFU/mL) in the Mueller–Hinton broth and incubated for 24 h at 37 °C. […] After 24 h of incubation, 20 μL of resazurin (4 mg/mL) was added to each well and the MBEC values were read. Minimum biofilm inhibitory concentrations (MBICs) were also determined on 96-well flat-bottomed microtiter polystyrene plates as described previously. To do this, 50 μL of the compounds in the concentration range, diluted MHB, were prepared. Subsequently, the 50 μL of the staphylococcal inoculums were added to reach the same density of bacteria as that in the MBEC assay. After 24 h of incubation at 37 °C, the wells were rinsed three times with PBS and the fresh medium (100 μL) with resazurin (0.6 mg/mL) was added. Then, after 1 h of incubation, MBICs were read. […] All experiments were conducted in triplicate.
(§2) Formation of the biofilm inside the PDMS flow chambers was performed using three peristaltic pumps working simultaneously (LP-pump, Kamush, Lipopharm, Poland) and sterile Tygon® 3350 silicone hoses (2.4 × 0.8 × 0.8 mm) with a length of 30 and 50 cm for inlet and outlet, respectively. Bacterial suspensions were prepared (0.5 × 10^7 CFU/mL) in sterile 50-mL test tubes, which were placed in a heating block at 37 °C. Before experiments, all channels were assessed for tightness and sterilized using a 70% 2-propanol solution (10 min, flow rate 1 mL/min) and rinsed with sterile PBS solution (10 min, flow 0.1 mL/min). The formation of biofilm inside the channels was divided into three stages: (1) adhesion—at this stage S. aureus suspensions were passed through the channels for 4 h at a flow rate of 0.1 mL/min; (2) rinsing—the previously used hoses were replaced with new sterile ones, and the channels were rinsed with sterile PBS solution for 10 min at a flow rate of 0.1 mL/min; (3) biofilm growth—after flushing the channels, the silicone hoses were placed in tubes with MHB medium, which was passed through the channels for 24 h at a flow rate of 0.1 mL/min. All experiments included growth and sterility controls.
(§3) This assay was conducted also on the S. aureus ATCC 25923 and S. aureus 33,591 (MRSA) strains.

[10] = system: S. aureus ATCC 33591 (MRSA); test: microbe, parasite or virus in culture
Source text: as §1, §2, §3

[11] = S. aureus 25923 biofilm treated under flow with Retro-Omiganan (half MBEC) for 24 h
[12] = S. aureus 25923 biofilm treated under flow with Retro-Omiganan (half MBEC) for 48 h
[13] = S. aureus 25923 biofilm treated under flow with Retro-Omiganan (half MBEC) for 72 h
[14] = Staphylococcus aureus, ATCC25923, 0 h
[15] = Staphylococcus aureus, ATCC25923, 24 h
[16] = Staphylococcus aureus, ATCC25923, 48 h
[17] = Staphylococcus aureus, ATCC25923, 72 h

## CCC[C@@H]1C[C@@H](C(=O)N[C@@H]([C@H]2O[C@H](SC)[C@H](O)[C@@H](O)[C@H]2O)[C@@H](C)O)N(C)C1 [Lincomycin]
[1]
  Antimicrobial susceptibility (MIC): 1 µg/mL
[2]
  Antimicrobial susceptibility (MIC): > 512 µg/mL
[3]
  Antimicrobial susceptibility (MIC): 1 µg/mL
[4]
  Antimicrobial susceptibility (MIC): 1 µg/mL
[5]
  Antimicrobial susceptibility (MIC): 1 µg/mL
[6]
  Antimicrobial susceptibility (MIC): 0.25 µg/mL
[7]
  Antimicrobial susceptibility (MIC): 0.5 µg/mL
[8]
  Antimicrobial susceptibility (MIC): 0.5 µg/mL
[9]
  Antimicrobial susceptibility (MIC): 0.5 µg/mL
S. aureus ATCC 25923; [11]
  MIC: 1.0 µg/mL (≈ 2.46 µM)
S. aureus ATCC 25923; [12]
  MIC: 1.0 µg/mL (≈ 2.46 µM)
S. aureus ATCC 25923; [13]
  MIC: 1.0 µg/mL (≈ 2.46 µM)
S. aureus ATCC 25923; [14]
  MIC: 1 µg/mL (≈ 2.46 µM)
S. aureus ATCC 25923; [15]
  MIC: 1 µg/mL (≈ 2.46 µM)
S. aureus ATCC 25923; [16]
  MIC: 1 µg/mL (≈ 2.46 µM)
S. aureus ATCC 25923; [17]
  MIC: 1 µg/mL (≈ 2.46 µM)
[10]; S. aureus ATCC 33591 (MRSA) biofilm treated under flow with Retro-Omiganan (half MBEC) for 24 h
  MIC: > 128 µg/mL
[10]; S. aureus ATCC 33591 (MRSA) biofilm treated under flow with Retro-Omiganan (half MBEC) for 48 h
  MIC: > 128 µg/mL
[10]; S. aureus ATCC 33591 (MRSA) biofilm treated under flow with Retro-Omiganan (half MBEC) for 72 h
  MIC: > 128 µg/mL
[10]; Staphylococcus aureus, 0 h
  MIC: > 128 µg/mL
[10]; Staphylococcus aureus, 24 h
  MIC: > 128 µg/mL
[10]; Staphylococcus aureus, 48 h
  MIC: > 128 µg/mL
[10]; Staphylococcus aureus, 72 h
  MIC: > 128 µg/mL

## CN[C@H](CC(C)C)C(=O)N[C@H]1C(=O)N[C@@H](CC(N)=O)C(=O)N[C@H]2C(=O)N[C@H]3C(=O)N[C@H](C(=O)N[C@H](C(=O)O)c4cc(O)cc(O)c4-c4cc3ccc4O)[C@H](O)c3ccc(c(Cl)c3)Oc3cc2cc(c3O[C@@H]2O[C@H](CO)[C@@H](O)[C@H](O)[C@H]2O[C@H]2C[C@](C)(N)[C@H](O)[C@H](C)O2)Oc2ccc(cc2Cl)[C@H]1O [Vancomycin]
[1]
  Antimicrobial susceptibility (MIC): 0.125 µg/mL
[2]
  Antimicrobial susceptibility (MIC): 0.5 µg/mL
[3]
  Antimicrobial susceptibility (MIC): 0.5 µg/mL
[4]
  Antimicrobial susceptibility (MIC): 0.5 µg/mL
[5]
  Antimicrobial susceptibility (MIC): 1 µg/mL
[6]
  Antimicrobial susceptibility (MIC): 0.25 µg/mL
[7]
  Antimicrobial susceptibility (MIC): 0.5 µg/mL
[8]
  Antimicrobial susceptibility (MIC): 2 µg/mL
[9]
  Antimicrobial susceptibility (MIC): 0.25 µg/mL
S. aureus ATCC 25923; Staphylococcus aureus, ATCC25923, 0 h, S. aureus 25923, time 0 h (baseline, before peptide exposure)
  MIC: 1 µg/mL (≈ 0.69 µM)
S. aureus ATCC 25923; Staphylococcus aureus, ATCC25923, 24 h, S. aureus 25923 biofilm treated under flow with Omiganan (half MBEC) for 24 h
  MIC: 1 µg/mL (≈ 0.69 µM)
S. aureus ATCC 25923; Staphylococcus aureus, ATCC25923, 24 h, S. aureus 25923 biofilm treated under flow with Retro-Omiganan (half MBEC) for 24 h
  MIC: 1 µg/mL (≈ 0.69 µM)
S. aureus ATCC 25923; Staphylococcus aureus, ATCC25923, 48 h, S. aureus 25923 biofilm treated under flow with Omiganan (half MBEC) for 48 h
  MIC: 1 µg/mL (≈ 0.69 µM)
S. aureus ATCC 25923; Staphylococcus aureus, ATCC25923, 48 h, S. aureus 25923 biofilm treated under flow with Retro-Omiganan (half MBEC) for 48 h
  MIC: 1 µg/mL (≈ 0.69 µM)
S. aureus ATCC 25923; Staphylococcus aureus, ATCC25923, 72 h, S. aureus 25923 biofilm treated under flow with Omiganan (half MBEC) for 72 h
  MIC: 1 µg/mL (≈ 0.69 µM)
S. aureus ATCC 25923; Staphylococcus aureus, ATCC25923, 72 h, S. aureus 25923 biofilm treated under flow with Retro-Omiganan (half MBEC) for 72 h
  MIC: 1 µg/mL (≈ 0.69 µM)
[10]; Staphylococcus aureus, ATCC33591|MRSA, 0 h, S. aureus ATCC 33591 (MRSA), time 0 h (baseline, before peptide exposure)
  MIC: 1 µg/mL (≈ 0.69 µM)
[10]; Staphylococcus aureus, ATCC33591|MRSA, 24 h, S. aureus ATCC 33591 (MRSA) biofilm treated under flow with Omiganan (half MBEC) for 24 h
  MIC: 1 µg/mL (≈ 0.69 µM)
[10]; Staphylococcus aureus, ATCC33591|MRSA, 24 h, S. aureus ATCC 33591 (MRSA) biofilm treated under flow with Retro-Omiganan (half MBEC) for 24 h
  MIC: 1 µg/mL (≈ 0.69 µM)
[10]; Staphylococcus aureus, ATCC33591|MRSA, 48 h, S. aureus ATCC 33591 (MRSA) biofilm treated under flow with Omiganan (half MBEC) for 48 h
  MIC: 1 µg/mL (≈ 0.69 µM)
[10]; Staphylococcus aureus, ATCC33591|MRSA, 48 h, S. aureus ATCC 33591 (MRSA) biofilm treated under flow with Retro-Omiganan (half MBEC) for 48 h
  MIC: 1 µg/mL (≈ 0.69 µM)
[10]; Staphylococcus aureus, ATCC33591|MRSA, 72 h, S. aureus ATCC 33591 (MRSA) biofilm treated under flow with Omiganan (half MBEC) for 72 h
  MIC: 1 µg/mL (≈ 0.69 µM)
[10]; Staphylococcus aureus, ATCC33591|MRSA, 72 h, S. aureus ATCC 33591 (MRSA) biofilm treated under flow with Retro-Omiganan (half MBEC) for 72 h
  MIC: 1 µg/mL (≈ 0.69 µM)

## CC[C@H]1OC(=O)[C@H](C)[C@@H](O[C@H]2C[C@@](C)(OC)[C@@H](O)[C@H](C)O2)[C@H](C)[C@@H](O[C@@H]2O[C@H](C)C[C@H](N(C)C)[C@H]2O)[C@](C)(O)C[C@@H](C)C(=O)[C@H](C)[C@@H](O)[C@]1(C)O [Erythromycin]
[2]
  Antimicrobial susceptibility (MIC): > 512 µg/mL
[5]
  Antimicrobial susceptibility (MIC): 32 µg/mL
[8]
  Antimicrobial susceptibility (MIC): 0.25 µg/mL
S. aureus ATCC 25923; [11]
  MIC: ≤ 0.25 µg/mL
S. aureus ATCC 25923; [12]
  MIC: ≤ 0.25 µg/mL
S. aureus ATCC 25923; [13]
  MIC: ≤ 0.25 µg/mL
S. aureus ATCC 25923; [14]
  MIC: ≤ 0.25 µg/mL
S. aureus ATCC 25923; [15]
  MIC: ≤ 0.25 µg/mL
S. aureus ATCC 25923; [16]
  MIC: ≤ 0.25 µg/mL
S. aureus ATCC 25923; [17]
  MIC: ≤ 0.25 µg/mL

Reference: publication PMC12055641, “The Study of Antistaphylococcal Potential of Omiganan and Retro-Omiganan Under Flow Conditions” (Probiotics and Antimicrobial Proteins, 2024)
